Kd data for eight compounds are collected here from ChEMBL document CHEMBL3991601, “The target landscape of clinical kinase drugs” (Science, 2017).

Calls of active or inactive are those of the source. For most assays here, no stated cut-off is given here; in the data, actives have a measured Kd and inactives only a lower limit.

One experiment deals with Actin-related protein 2 (Homo sapiens, UniProt P61160).
For experiment [1], the target named is Tyrosine-protein kinase BTK (Homo sapiens, UniProt Q06187).
In experiment [2] the target is Calcium/calmodulin-dependent protein kinase kinase 2 (Homo sapiens, UniProt Q96RR4).
For experiment [3], the target named is Serine/threonine-protein kinase MRCK gamma (Homo sapiens, UniProt Q6DT37).
Experiment [4] deals with Casein kinase II subunit alpha' (Homo sapiens, UniProt P19784).
The target in experiment [5] is Tyrosine-protein kinase Lyn (Homo sapiens, UniProt P07948).
Experiment [6] addresses Myosin light chain kinase, smooth muscle (Homo sapiens, UniProt Q15746).
Experiment [7] concerns the target T1, Serine/threonine-protein kinase Nek9 (Homo sapiens, UniProt Q8TD19).
T1 sequence (Q8TD19 whole entry): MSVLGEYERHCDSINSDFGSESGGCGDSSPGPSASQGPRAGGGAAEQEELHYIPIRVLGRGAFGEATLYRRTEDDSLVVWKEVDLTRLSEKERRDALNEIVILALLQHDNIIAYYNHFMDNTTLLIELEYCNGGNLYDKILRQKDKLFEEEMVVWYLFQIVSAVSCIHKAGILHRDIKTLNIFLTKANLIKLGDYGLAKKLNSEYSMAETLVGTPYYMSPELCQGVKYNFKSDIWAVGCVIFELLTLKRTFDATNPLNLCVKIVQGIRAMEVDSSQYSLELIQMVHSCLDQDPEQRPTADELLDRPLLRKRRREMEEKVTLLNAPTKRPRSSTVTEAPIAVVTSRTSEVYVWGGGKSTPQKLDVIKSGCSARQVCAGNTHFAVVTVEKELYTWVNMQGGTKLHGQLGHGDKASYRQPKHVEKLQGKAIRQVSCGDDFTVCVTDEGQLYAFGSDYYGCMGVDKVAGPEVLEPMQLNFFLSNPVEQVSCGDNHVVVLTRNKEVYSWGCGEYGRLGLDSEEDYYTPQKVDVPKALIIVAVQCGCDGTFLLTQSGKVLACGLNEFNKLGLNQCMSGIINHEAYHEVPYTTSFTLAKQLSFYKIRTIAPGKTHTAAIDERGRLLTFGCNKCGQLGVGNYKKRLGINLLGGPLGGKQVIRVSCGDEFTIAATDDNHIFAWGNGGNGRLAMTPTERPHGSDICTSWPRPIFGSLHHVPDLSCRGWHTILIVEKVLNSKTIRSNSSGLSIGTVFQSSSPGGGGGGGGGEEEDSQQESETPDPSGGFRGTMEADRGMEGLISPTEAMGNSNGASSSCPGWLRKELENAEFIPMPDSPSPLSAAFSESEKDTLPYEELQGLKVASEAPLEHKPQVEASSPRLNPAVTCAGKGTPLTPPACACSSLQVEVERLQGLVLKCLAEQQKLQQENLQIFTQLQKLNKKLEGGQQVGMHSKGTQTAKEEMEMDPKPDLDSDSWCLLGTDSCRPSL

For experiment [8], the target named is Serine/threonine-protein kinase pim-1 (Homo sapiens, UniProt P11309).
Experiment [9] addresses Serine/threonine-protein kinase N1 (Homo sapiens, UniProt Q16512).
For experiment [10], the target named is T2, Serine/threonine-protein kinase D3 (Homo sapiens, UniProt O94806).
T2 sequence (O94806 whole entry): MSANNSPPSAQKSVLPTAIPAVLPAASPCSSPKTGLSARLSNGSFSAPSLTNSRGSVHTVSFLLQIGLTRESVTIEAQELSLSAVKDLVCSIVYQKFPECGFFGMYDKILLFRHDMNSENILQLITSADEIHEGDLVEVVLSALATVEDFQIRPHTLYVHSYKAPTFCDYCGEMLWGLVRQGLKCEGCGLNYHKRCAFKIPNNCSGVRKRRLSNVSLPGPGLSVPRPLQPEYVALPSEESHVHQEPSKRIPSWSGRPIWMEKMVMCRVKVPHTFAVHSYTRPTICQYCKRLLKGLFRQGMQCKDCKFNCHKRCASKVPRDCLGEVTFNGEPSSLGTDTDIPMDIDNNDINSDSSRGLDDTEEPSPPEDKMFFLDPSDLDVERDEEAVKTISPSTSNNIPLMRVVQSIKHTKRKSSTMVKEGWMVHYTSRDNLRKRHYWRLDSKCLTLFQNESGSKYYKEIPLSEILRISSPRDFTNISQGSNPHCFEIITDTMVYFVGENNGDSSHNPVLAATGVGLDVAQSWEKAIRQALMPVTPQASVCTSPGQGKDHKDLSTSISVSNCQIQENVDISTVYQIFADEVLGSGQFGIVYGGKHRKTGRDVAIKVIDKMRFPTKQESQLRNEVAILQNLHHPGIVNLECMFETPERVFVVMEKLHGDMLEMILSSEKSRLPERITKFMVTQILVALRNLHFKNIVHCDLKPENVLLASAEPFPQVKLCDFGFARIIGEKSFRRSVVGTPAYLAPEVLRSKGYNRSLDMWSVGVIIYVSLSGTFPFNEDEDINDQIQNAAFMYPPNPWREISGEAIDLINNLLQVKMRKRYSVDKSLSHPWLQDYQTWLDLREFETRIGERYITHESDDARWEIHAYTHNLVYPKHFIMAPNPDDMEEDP

The target in experiment [11] is Protein-tyrosine kinase 6 (Homo sapiens, UniProt Q13882).
The target in experiment [12] is T3, Tyrosine--tRNA ligase, cytoplasmic (Homo sapiens, UniProt P54577).
T3 sequence (P54577 whole entry): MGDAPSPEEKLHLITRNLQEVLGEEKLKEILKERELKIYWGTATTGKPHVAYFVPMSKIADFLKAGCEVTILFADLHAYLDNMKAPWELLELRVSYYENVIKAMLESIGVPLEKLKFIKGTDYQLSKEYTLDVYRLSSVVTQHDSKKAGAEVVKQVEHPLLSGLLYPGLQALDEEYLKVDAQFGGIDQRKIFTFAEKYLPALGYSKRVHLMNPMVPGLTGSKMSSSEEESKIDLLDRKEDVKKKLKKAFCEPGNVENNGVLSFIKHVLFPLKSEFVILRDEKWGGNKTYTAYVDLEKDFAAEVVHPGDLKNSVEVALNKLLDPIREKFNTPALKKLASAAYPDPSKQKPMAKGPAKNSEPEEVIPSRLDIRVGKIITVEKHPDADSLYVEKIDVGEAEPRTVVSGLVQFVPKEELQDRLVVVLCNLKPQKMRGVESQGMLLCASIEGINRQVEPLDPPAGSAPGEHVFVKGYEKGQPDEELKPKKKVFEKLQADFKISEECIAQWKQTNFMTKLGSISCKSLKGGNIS

Casein kinase II subunit alpha', sequence (P19784 whole entry): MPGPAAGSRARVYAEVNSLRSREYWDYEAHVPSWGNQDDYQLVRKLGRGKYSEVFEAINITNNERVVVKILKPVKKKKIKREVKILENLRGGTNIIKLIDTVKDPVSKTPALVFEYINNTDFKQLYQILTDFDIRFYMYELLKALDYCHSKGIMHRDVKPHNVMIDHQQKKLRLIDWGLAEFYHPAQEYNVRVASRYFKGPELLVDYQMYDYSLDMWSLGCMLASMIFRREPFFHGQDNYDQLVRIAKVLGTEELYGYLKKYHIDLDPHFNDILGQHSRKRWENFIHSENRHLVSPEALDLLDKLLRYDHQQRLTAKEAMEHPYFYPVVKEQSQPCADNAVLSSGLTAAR
Serine/threonine-protein kinase MRCK gamma, sequence (Q6DT37 whole entry): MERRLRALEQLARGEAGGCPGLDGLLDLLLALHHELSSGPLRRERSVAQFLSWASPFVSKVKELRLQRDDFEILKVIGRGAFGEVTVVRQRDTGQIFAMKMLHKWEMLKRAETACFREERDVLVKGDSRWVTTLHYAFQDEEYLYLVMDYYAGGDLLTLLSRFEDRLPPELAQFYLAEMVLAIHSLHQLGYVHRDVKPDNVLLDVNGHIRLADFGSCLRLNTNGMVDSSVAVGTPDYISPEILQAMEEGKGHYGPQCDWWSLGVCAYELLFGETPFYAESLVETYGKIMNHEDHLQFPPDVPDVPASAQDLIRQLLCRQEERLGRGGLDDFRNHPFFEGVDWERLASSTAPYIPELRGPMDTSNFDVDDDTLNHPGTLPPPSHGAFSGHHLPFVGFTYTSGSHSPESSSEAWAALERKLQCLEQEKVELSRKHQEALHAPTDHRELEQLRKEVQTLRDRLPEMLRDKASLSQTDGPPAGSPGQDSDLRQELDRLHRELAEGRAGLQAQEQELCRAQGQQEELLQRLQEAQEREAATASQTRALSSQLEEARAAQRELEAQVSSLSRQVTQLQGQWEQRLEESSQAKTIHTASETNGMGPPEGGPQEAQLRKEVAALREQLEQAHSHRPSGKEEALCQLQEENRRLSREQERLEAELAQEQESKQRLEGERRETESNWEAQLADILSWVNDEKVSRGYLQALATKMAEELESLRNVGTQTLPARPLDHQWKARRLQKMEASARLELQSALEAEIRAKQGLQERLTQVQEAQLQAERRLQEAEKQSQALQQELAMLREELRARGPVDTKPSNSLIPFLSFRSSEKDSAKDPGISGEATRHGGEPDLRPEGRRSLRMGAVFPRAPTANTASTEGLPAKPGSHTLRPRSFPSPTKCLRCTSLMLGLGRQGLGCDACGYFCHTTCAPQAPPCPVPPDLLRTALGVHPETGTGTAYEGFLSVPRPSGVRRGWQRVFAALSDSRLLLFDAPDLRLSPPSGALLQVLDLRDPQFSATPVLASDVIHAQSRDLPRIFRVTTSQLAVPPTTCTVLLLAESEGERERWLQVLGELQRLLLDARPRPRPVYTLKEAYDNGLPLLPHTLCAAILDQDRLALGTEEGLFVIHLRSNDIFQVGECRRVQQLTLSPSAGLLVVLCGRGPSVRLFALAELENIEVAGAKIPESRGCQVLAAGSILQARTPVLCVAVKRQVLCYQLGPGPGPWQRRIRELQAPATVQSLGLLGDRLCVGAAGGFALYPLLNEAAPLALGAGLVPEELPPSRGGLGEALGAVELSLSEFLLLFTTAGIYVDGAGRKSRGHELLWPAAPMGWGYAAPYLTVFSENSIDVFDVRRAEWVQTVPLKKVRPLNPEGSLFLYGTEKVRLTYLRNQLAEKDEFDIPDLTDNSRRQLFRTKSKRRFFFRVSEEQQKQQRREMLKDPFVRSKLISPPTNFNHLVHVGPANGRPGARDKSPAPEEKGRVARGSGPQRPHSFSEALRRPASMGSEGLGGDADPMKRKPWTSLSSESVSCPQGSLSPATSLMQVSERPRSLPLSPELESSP
Protein-tyrosine kinase 6, sequence (Q13882 whole entry): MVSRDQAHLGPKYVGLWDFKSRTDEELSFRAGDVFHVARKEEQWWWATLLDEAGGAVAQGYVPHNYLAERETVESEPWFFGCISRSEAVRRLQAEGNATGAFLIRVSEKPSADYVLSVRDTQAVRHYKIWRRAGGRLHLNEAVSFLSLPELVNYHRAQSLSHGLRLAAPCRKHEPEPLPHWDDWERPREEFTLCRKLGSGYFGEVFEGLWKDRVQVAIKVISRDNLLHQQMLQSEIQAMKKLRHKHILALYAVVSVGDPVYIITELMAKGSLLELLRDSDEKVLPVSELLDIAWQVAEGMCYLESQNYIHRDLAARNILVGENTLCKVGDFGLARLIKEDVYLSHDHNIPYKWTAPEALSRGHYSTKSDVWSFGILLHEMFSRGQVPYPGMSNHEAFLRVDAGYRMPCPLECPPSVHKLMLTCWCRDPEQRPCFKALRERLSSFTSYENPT
Serine/threonine-protein kinase N1, sequence (Q16512 whole entry): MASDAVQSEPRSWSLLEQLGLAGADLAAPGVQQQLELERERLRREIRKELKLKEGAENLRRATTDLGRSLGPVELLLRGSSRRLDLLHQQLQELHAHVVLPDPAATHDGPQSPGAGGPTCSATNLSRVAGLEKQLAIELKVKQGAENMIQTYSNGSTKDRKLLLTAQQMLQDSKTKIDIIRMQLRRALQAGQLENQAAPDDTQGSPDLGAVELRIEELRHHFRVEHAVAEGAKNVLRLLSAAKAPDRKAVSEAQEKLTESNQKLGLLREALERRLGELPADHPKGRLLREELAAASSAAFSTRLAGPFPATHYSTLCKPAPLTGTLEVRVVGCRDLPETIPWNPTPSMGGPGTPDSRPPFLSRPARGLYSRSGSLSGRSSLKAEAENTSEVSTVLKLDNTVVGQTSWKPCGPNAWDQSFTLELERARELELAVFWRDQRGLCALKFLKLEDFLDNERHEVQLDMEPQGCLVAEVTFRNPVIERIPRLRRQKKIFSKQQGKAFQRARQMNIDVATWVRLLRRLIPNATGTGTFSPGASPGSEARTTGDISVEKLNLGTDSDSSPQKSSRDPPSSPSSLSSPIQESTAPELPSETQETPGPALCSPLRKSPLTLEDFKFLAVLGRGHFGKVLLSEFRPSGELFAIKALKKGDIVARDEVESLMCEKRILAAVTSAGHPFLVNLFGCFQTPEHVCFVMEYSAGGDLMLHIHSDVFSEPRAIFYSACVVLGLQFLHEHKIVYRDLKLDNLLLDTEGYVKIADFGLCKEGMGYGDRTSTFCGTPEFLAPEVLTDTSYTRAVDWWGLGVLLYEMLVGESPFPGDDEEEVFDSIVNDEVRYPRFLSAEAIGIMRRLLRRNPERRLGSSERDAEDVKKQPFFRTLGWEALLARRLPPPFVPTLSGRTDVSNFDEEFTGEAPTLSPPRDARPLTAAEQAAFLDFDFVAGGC
Tyrosine-protein kinase Lyn, sequence (P07948 whole entry): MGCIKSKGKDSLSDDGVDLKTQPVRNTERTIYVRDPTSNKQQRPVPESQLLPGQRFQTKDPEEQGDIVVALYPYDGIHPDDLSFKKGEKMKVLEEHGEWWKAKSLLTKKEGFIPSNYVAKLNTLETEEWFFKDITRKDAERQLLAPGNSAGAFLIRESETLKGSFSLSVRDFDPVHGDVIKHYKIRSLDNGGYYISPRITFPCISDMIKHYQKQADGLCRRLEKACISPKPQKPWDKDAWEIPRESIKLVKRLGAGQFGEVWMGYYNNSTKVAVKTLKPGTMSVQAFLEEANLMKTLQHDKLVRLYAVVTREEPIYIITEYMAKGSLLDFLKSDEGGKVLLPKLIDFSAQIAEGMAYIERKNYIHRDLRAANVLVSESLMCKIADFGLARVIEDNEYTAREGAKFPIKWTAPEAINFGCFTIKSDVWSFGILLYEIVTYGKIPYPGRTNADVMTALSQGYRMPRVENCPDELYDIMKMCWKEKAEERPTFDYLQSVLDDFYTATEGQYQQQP
Tyrosine-protein kinase BTK, sequence (Q06187 whole entry): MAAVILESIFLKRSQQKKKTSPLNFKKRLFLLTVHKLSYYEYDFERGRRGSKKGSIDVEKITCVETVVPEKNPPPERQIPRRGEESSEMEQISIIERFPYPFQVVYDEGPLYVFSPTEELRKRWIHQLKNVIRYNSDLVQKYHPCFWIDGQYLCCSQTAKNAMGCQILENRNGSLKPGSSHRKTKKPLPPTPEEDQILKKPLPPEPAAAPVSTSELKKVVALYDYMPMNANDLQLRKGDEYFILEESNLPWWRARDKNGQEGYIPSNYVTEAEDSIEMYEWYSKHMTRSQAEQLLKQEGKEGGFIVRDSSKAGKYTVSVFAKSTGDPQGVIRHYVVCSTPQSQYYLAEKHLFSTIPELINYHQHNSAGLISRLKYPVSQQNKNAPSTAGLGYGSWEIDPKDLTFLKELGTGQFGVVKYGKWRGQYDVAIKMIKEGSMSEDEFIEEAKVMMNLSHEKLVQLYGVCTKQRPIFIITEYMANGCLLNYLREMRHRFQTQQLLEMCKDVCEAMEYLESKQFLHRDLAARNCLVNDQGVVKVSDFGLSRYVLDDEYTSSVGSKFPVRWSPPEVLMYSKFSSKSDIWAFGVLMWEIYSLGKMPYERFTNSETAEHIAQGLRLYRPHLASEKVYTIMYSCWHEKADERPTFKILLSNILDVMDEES
Calcium/calmodulin-dependent protein kinase kinase 2, sequence (Q96RR4 whole entry): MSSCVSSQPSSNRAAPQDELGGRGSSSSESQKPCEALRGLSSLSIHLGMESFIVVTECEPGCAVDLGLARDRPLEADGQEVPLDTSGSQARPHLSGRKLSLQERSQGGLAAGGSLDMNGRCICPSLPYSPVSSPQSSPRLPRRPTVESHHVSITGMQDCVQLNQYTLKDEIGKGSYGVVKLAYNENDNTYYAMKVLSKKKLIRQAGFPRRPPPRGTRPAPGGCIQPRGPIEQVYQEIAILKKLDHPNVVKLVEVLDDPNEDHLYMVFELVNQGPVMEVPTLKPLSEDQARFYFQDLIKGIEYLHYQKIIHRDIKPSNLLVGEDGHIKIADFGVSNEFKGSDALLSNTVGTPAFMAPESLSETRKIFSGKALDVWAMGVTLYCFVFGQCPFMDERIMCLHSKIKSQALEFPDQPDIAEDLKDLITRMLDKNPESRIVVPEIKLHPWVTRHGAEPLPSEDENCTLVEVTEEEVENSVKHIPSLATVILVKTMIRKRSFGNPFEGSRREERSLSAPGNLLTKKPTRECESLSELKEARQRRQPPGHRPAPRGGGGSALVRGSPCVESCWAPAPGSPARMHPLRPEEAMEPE

Regarding `COc1cc2ncnc(Nc3ccc(F)c(Cl)c3)c2cc1NC(=O)/C=C/CN1CCCCC1` [DACOMITINIB ANHYDROUS], the Kd (at Actin-related protein 2; in experiment [1]; in [2]; in experiment [3]; in experiment [4]; in experiment [5]) was > 30 µM (inactive) each time. For the same compound, the Kd in [6], in experiment [7], in experiment [8], in [9], in [10] and in [11] was > 30 µM (inactive) in each case. Moreover, the Kd in experiment [12] is > 30 µM (inactive).

`Cc1c(NC(=O)OC[C@@H]2COCCN2)cn2ncnc(Nc3ccc4c(cnn4Cc4cccc(F)c4)c3)c12` [AC-480]: the Kd (at Actin-related protein 2; in experiment [1]; in experiment [2]; in experiment [3]; in experiment [4]; in experiment [5]) was > 30 µM (inactive) in each case. In addition, the Kd in experiment [6], in [7], in [8], in experiment [9], in experiment [10] and in experiment [11] was > 30 µM (inactive) throughout. Also, the Kd in experiment [12] is > 30 µM (inactive).

With `Cc1cc(-c2cc(OC(=O)c3ccccc3)ccc2Cl)cc2nnc(Nc3ccc(OCCN4CCCC4)cc3)nc12` [TG100-801], the Kd (at Actin-related protein 2; in experiment [1]; in experiment [2]; in experiment [3]; in [4]; in [5]) was > 30 µM (inactive) throughout. The Kd in experiment [6], in experiment [7], in experiment [8], in [9], in experiment [10] and in experiment [11] was > 30 µM (inactive) throughout. Further, the Kd in [12] is > 30 µM (inactive).

With `COc1cc2nccc(Oc3ccc(NC(=O)C4(C(=O)Nc5ccc(F)cc5)CC4)cc3)c2cc1OC` [CABOZANTINIB], the Kd was > 30 µM (inactive) on Actin-related protein 2; > 30 µM (inactive) in experiment [1]; > 30 µM (inactive) in experiment [2]; > 30 µM (inactive) in experiment [3]; > 30 µM (inactive) in experiment [4]; 1.33 µM (active) in [5]. Moreover, the Kd in experiment [6] is > 30 µM (inactive); in [7], > 30 µM (inactive); in experiment [8], > 30 µM (inactive); in [9], > 30 µM (inactive); in experiment [10], > 30 µM (inactive); in experiment [11], 1.76 µM (active). In addition, in [12], the Kd is > 30 µM (inactive).

For the compound `Cc1c(Cn2c(C)nc3c(C(=O)O)cc(N4CCOCC4)cc32)cccc1C(F)(F)F` [GSK-2636771], the Kd (at Actin-related protein 2; in [1]; in experiment [2]; in experiment [3]; in [4]; in experiment [5]) was > 30 µM (inactive) throughout. In addition, the Kd in [6], in [7], in experiment [8], in [9], in experiment [10] and in experiment [11] was > 30 µM (inactive) throughout. In [12], the Kd is > 30 µM (inactive).

`Cc1cc(Nc2nc(N[C@@H](C)c3ncc(F)cn3)ncc2Cl)n[nH]1` [AZD-1480]: the Kd on Actin-related protein 2 was > 30 µM (inactive); in experiment [1] it was > 30 µM (inactive); in experiment [2], > 30 µM (inactive); in experiment [3], > 30 µM (inactive); in experiment [4] it was 3.96 µM (active); in experiment [5], > 30 µM (inactive). Also, the Kd in experiment [6], in experiment [7], in [8], in [9], in experiment [10] and in experiment [11] was > 30 µM (inactive) throughout. For the same compound, the Kd in [12] was > 30 µM (inactive).

Take `Cc1ccc(C(=O)Nc2ccc(Oc3cc4cnn(C)c4cc3-c3cn[nH]c3)c(F)c2)c(=O)n1-c1ccc(F)cc1` [MERESTINIB]: the Kd (on Actin-related protein 2; in experiment [1]; in [2]; in experiment [3]; in [4]; in experiment [5]) was > 30 µM (inactive) each time. The Kd in experiment [6], in experiment [7], in experiment [8], in experiment [9], in experiment [10] and in [11] was > 30 µM (inactive) in each case. Further, the Kd in [12] is > 30 µM (inactive).

Consider `CNC(=O)c1cc(COc2nnc(Nc3ccc(Cl)cc3)c3ccoc23)ccn1` [TELATINIB], for which the Kd (at Actin-related protein 2; in [1]; in experiment [2]; in experiment [3]; in experiment [4]; in experiment [5]) was > 30 µM (inactive) each time. The Kd in experiment [6], in experiment [7], in [8], in [9], in experiment [10] and in [11] was > 30 µM (inactive) throughout. For the same compound, the Kd in experiment [12] is > 30 µM (inactive).

The Kd is the equilibrium constant for the complex coming apart.
